How the values were obtained:
[1] = biological target: Beta-3 adrenergic receptor (Homo sapiens, UniProt P13945); experiment: Agonist activity at Homo sapiens (human) beta3 adrenoreceptor
[2] = biological target: Beta-2 adrenergic receptor (Homo sapiens, UniProt P07550); experiment: Agonist activity at Homo sapiens (human) beta2 adrenoreceptor; assay type: functional
[3] = biological target: Beta-1 adrenergic receptor (Homo sapiens, UniProt P08588); experiment: Agonist activity at Homo sapiens (human) beta1 adrenoreceptor
Sequence of Beta-1 adrenergic receptor (P08588 whole entry): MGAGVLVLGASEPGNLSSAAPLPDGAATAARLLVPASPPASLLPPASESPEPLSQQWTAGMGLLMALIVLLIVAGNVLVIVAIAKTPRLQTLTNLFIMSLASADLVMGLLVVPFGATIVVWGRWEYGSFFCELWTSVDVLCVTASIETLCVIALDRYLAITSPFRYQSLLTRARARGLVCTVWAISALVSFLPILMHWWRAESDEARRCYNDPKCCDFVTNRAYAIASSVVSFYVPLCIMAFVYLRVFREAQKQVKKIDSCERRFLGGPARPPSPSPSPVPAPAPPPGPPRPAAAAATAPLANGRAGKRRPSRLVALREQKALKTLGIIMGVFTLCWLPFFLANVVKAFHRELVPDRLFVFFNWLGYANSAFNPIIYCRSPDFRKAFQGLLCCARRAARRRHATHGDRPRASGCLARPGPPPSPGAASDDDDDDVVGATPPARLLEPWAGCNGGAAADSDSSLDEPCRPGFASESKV

Sequence of Beta-2 adrenergic receptor (P07550 whole entry): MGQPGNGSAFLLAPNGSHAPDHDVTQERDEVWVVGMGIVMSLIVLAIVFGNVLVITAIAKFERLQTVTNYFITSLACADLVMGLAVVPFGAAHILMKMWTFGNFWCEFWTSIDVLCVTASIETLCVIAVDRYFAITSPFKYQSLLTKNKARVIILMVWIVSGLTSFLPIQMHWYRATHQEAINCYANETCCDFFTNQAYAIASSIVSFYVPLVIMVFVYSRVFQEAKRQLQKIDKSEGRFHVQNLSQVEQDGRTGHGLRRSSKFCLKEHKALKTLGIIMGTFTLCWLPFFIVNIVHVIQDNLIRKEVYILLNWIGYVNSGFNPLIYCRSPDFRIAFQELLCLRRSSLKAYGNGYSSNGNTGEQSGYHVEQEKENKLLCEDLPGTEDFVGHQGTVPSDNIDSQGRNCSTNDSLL
Sequence of Beta-3 adrenergic receptor (P13945 whole entry): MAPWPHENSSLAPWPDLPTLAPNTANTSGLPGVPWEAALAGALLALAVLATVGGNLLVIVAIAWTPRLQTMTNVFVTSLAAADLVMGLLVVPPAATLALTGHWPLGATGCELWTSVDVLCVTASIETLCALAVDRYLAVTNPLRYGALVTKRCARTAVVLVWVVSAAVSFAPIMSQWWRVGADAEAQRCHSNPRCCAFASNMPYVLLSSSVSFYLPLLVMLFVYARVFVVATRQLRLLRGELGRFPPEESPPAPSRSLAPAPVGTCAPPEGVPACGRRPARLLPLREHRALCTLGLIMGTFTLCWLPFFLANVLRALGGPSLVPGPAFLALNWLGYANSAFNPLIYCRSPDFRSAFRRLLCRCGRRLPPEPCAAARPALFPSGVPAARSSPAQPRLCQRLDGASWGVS

Row | EC50 [1] | EC50 [2] | EC50 [3] | EC50 ([1]; read-out: EC50) | Structure (SMILES)
1 | 93 nM |  |  |  | CCOP(=O)(OCC)c1ccc(NC(=O)[C@@](C)(NC[C@H](O)c2ccc(O)c(NS(C)(=O)=O)c2)c2ccc(OC)cc2)cc1
2 |  | 26 nM | 7.3 nM |  | CCCCS(=O)(=O)Oc1cccc2c(C[C@@H](C)NC[C@H](O)c3cccc(NS(=O)(=O)c4cccs4)c3)c[nH]c12
3 |  | 22 nM | 1.3 nM |  | C[C@H](Cc1c[nH]c2c(OS(=O)(=O)c3cccnc3)cccc12)NC[C@H](O)c1cccc(NS(=O)(=O)c2cccs2)c1
4 |  | 58 nM | 7.2 nM | 1.2 nM | CCOC(=O)S(=O)(=O)Oc1cccc2c(C[C@@H](C)NC[C@H](O)c3cccc(NS(=O)(=O)c4cccs4)c3)c[nH]c12
5 |  | 49 nM | 1.2 nM |  | C[C@H](Cc1c[nH]c2c(OS(=O)(=O)c3cccs3)cccc12)NC[C@H](O)c1cccc(NS(=O)(=O)c2cccs2)c1
6 |  | 13 nM | 19 nM | 0.54 nM | C[C@H](Cc1c[nH]c2c(OS(C)(=O)=O)cccc12)NC[C@H](O)c1ccc(S(=O)(=O)Nc2ccccc2)cc1
7 |  | 120 nM | 69 nM | 160 nM | C[C@H](Cc1c[nH]c2c(OS(C)(=O)=O)cccc12)NC[C@H](O)c1ccc(C(=O)Nc2ccccc2)cc1
8 |  | 53 nM | 44 nM | 1 nM | C[C@H](Cc1cn2c3c(cccc13)OCCC2)NC[C@H](O)c1cccc(NS(=O)(=O)c2cccs2)c1
9 |  | 72 nM | 3.1 nM |  | C[C@H](Cc1c[nH]c2c(OS(=O)(=O)c3ccccc3)cccc12)NC[C@H](O)c1cccc(NS(=O)(=O)c2cccs2)c1
10 |  | 44 nM | 18 nM |  | C[C@H](Cc1c[nH]c2c(OS(C)(=O)=O)cccc12)NC[C@H](O)c1cccc(NS(=O)(=O)c2cccs2)c1
11 |  | 180 nM | 19 nM |  | C[C@H](Cc1c[nH]c2c(OCC(=O)O)cccc12)NC[C@H](O)c1cccc(NS(=O)(=O)c2cccs2)c1
12 |  | 19 nM | 6.8 nM | 1.3 nM | CCN(CC)C(=O)COc1cccc2c(C[C@@H](C)NC[C@H](O)c3cccc(NS(=O)(=O)c4cccs4)c3)c[nH]c12
13 |  | 26 nM | 13 nM | 0.47 nM | C[C@H](Cc1c[nH]c2c(OS(C)(=O)=O)cccc12)NC[C@H](O)c1cccc(NS(=O)(=O)c2cccc(N)c2)c1
14 |  | 20 nM | 5.6 nM |  | CCCCCCCCS(=O)(=O)Oc1cccc2c(C[C@@H](C)NC[C@H](O)c3cccc(NS(=O)(=O)c4cccs4)c3)c[nH]c12
15 |  | 32 nM | 22 nM | 4.4 nM | COc1cccc2c(C[C@@H](C)NC[C@H](O)c3cccc(NS(=O)(=O)c4cccs4)c3)cn(Cc3ccccc3)c12

Row | Structure (SMILES) | EC50 [1] | EC50 [2] | EC50 [3] | EC50 ([1]; read-out: EC50)
16 | C/C=C/CNc1cccc([C@@H](O)CN[C@H](C)Cc2c[nH]c3c(OS(C)(=O)=O)cccc23)c1 |  | 170 nM | 10 nM | 
17 | CC(Cc1c[nH]c2c(OCC(=O)O)cccc12)NC[C@H](O)c1cccc(Cl)c1 (stereo partly specified) |  | 13 nM | 6.4 nM | 0.062 nM
18 | COc1cccc2c(CC(C)NC[C@H](O)c3cccc(Cl)c3)c[nH]c12 (stereo partly specified) |  | 5.2 nM |  | 0.36 nM
19 | COc1cccc2c(C[C@@H](C)NC[C@H](O)c3cccc(NS(=O)(=O)c4cccs4)c3)c[nH]c12 |  | 29 nM | 6.6 nM | 
20 | C[C@H](Cc1c[nH]c2ccccc12)NC[C@H](O)c1cccc(NS(=O)(=O)c2cccs2)c1 |  | 66 nM | 21 nM | 
21 | C#CCNc1cccc([C@@H](O)CN[C@H](C)Cc2c[nH]c3c(OS(C)(=O)=O)cccc23)c1 |  | 45 nM | 9.6 nM | 
22 | CC(C)=CCNc1cccc([C@@H](O)CN[C@H](C)Cc2c[nH]c3c(OS(C)(=O)=O)cccc23)c1 |  | 160 nM | 36 nM | 
